Results reported in patent publication US20250066864A1, “METHODS FOR IDENTIFYING ADAR1 INHIBITORS, AND COMPOSITIONS AND METHODS OF USE IN TREATING CANCER” (The Wistar Institute of Anatomy and Biology, priority 2021, published 2025).
Entries after “also recorded” stand apart in the source; their conditions may differ. Where two headings read alike, the source gives them in different places.

What was measured:
[1] = system: HeLa cells; test: Apo Tox-Glo viability assay, HeLa cells; type: cell-based, human; conditions: 5 μM, 3 days
Protocol: (§1) HeLa, U2OS, and MRI90 cells were cultured in the presence of ADAR1 inhibitors, 5 μM or 20 μM, for 3 days. Their viability was examined using the Apo Tox-Glo assay system (Promega), which measures plasma membrane penetration of glycyl-phenyl-alanyl-aminofluorocoumarin peptide. Control, 0.3% DMSO. […] Data are mean±S.D. (n=3, biological replicates).
(§2) FIGS. 29A-29D Characterization of Compound #13 effects in cancer cells. […] Viability was examined using the Apo Tox-Glo assay system (Promega). Control, 0.3% DMSO. (FIG. 29B) Western blotting analysis of HeLa cells treated with Compound #13 (10 μM). […] (FIG. 29D) Activation of the IFN signaling pathway. HSC-4 squamous carcinoma cells were treated with Compound #13 at 10 μM (12 hrs). RNA samples were analyzed by qRT-PCR to monitor expression levels of ISGs.

[2] = biological target: T1, ADAR1p110 (Homo sapiens, UniProt P55265); test: in vitro editing assay with recombinant ADAR1p110 and dsRNA or DNA:RNA substrates; type: biochemical; conditions: for inhibitory potency of ADAR1 p110 editing activity (SAR analogs): data not shown
T1 construct: HAT (N); FLAG (alternative preparation, not on the same molecule as HAT) (N); made in house; host or cells: Sf9 insect cells, baculovirus
T1 sequence (P55265 1-931 isoform P55265-5): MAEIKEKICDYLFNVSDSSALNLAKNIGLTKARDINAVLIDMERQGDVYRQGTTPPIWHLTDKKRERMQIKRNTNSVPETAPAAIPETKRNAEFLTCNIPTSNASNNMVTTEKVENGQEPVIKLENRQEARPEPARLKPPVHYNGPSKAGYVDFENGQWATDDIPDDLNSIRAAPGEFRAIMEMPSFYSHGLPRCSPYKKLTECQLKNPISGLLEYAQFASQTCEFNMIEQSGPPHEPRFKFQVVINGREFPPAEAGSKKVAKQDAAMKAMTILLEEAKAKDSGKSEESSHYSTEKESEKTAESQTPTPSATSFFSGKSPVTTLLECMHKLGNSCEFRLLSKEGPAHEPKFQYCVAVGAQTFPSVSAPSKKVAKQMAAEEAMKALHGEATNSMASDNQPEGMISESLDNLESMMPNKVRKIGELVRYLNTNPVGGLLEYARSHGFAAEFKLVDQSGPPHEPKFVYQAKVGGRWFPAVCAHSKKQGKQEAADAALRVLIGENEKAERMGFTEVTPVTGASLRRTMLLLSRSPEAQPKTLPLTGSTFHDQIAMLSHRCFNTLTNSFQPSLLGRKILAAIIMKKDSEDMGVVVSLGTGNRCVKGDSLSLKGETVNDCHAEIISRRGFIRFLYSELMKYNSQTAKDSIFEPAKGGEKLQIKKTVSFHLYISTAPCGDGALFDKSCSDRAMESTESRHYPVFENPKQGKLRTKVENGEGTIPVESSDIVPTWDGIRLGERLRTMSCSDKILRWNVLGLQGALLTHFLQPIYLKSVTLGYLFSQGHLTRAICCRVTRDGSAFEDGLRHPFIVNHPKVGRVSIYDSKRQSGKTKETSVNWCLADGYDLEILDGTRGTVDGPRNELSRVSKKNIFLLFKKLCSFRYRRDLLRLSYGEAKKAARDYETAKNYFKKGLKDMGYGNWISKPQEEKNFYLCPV
Protocol: FIG. 26A-FIG. 26B show determination of IC50 by in vitro editing assay. In vitro editing assay using purified ADAR1p110 protein and two different substrates, matched (left) and mismatched (right) dsRNAs, was conducted in the presence of varying concentrations of compound #1 (FIG. 26A) or #13 (FIG. 26B) in order to estimate IC50 values for these compounds. In vitro editing was carried out using HAT-ADAR1p110 or HAT-ADAR2 recombinant protein (10 nM) and two different dsRNA substrates carrying a part of the CDK13 gene sequence (5 nM) at 37° C. for 2 hrs as described previously (12). Compounds were dissolved in 100% DMSO. The in vitro assay contained DMSO at final concentration of 16%.
The in vitro editing reaction mixture, containing 5 nM of telomere RNA:RNA duplex substrates and 75 nM of HAT-ADAR1p110-WT, FLAG-ADAR1p110-WT, or HA-ADAR1p110-EAA protein, was incubated at 37° C. for 2 h in in vitro editing buffer I (20 mM HEPES-KOH pH 7.5, 100 mM NaCl, 0.01% NP-40, 5% glycerol, 1 mM DTT). For editing of RNA:DNA hybrid substrates, in vitro editing buffer II (20 mM HEPES-KOH pH 7.5, 20 mM NaCl, 0.01% NP-40, 5% glycerol, 1 mM DTT) was used. Edited RNA or DNA strands were purified using Dynabeads MyOne Streptavidin C1 (Thermo Fisher Scientific). To remove opposite RNA or DNA strands, rNase H (NEB) or TURBO dNase (Thermo Fisher Scientific) was used, respectively. For sequencing of edited substrates, reverse transcription-PCR was carried out for RNA strands, while PCR was carried out for DNA strands. RT reactions were carried out using SuperScript III Reverse Transcriptase (Thermo Fisher Scientific), and PCR reactions were performed using Platinum Taq DNA polymerase (Thermo Fisher Scientific). PCR products were sequenced using a specific sequencing primer, and the ratio of A and G peaks in the chromatograms were analyzed by CodonCode Aligner (CodonCode Corporation).
The 54 compounds identified in the high-throughput screen were further tested in the in vitro editing assay described in Examples 1 and 2. The in vitro editing reaction mixture, containing 5 nM of telomere RNA:RNA duplex substrates and 75 nM of HAT-ADAR1p110-WT, FLAG-ADAR1p110-WT, or HA-ADAR1p110-EAA protein, was incubated at 37° C. for 2 h in in vitro editing buffer I (20 mM HEPES-KOH pH 7.5, 100 mM NaCl, 0.01% NP-40, 5% glycerol, 1 mM DTT) with 10 microM test compound. For editing of RNA:DNA hybrid substrates, in vitro editing buffer II (20 mM HEPES-KOH pH 7.5, 20 mM NaCl, 0.01% NP-40, 5% glycerol, 1 mM DTT) was used. Edited RNA or DNA strands were purified using Dynabeads MyOne Streptavidin C1 (Thermo Fisher Scientific). To remove opposite RNA or DNA strands, Rnase H (NEB) or TuRBO Dnase (Thermo Fisher Scientific) was used, respectively. For sequencing of edited substrates, reverse transcription-PCR was carried out for RNA strands, while PCR was carried out for DNA strands. RT reactions were carried out using SuperScript III Reverse Transcriptase (Thermo Fisher Scientific), and PCR reactions were performed using Platinum Taq DNA polymerase (Thermo Fisher Scientific). PCR products were sequenced using a specific sequencing primer, and the ratio of A and G peaks in the chromatograms were analyzed by CodonCode Aligner (CodonCode Corporation).

[3] = system: IMR90 normal fibroblast cells; test: Apo Tox-Glo viability assay, IMR90 normal fibroblast cells; type: cell-based; conditions: 5 μM, 3 days
Protocol: as §1, §2

[4] = system: U2OS cells; test: Apo Tox-Glo viability assay, U2OS cells; type: cell-based, human; conditions: 5 μM, 3 days
Protocol: as §1, §2

[5] = matched dsRNA substrate, read-out: IC50 estimated by in vitro editing assay, RNA:RNA
[6] = mismatched dsRNA substrate, read-out: IC50 estimated by in vitro editing assay, RNA:mmRNA
[7] = DNA:RNA mismatched hybrid substrate, read-out: IC50 estimated by in vitro editing assay, DNA:mmRNA

SMILES: NC(=NOC(=O)c1ccc([N+](=O)[O-])o1)c1ccc(OCc2ccc(Cl)cc2)c(Cl)c1 [Compound #1, [[amino-[3-chloro-4-[(4-chlorophenyl)methoxy]phenyl]methylidene]amino]5-nitrofuran-2-carboxylate]
- viability of HeLa (non-ALT) cells [1]: significantly decreased viability; also recorded: significantly reduced viability
- IC50 [2, 5]: 27 µM
- IC50 [2, 6]: 33 µM
- viability of MRI90 (normal fibroblast) cells [3]: very little effects

SMILES: COc1cc(C2=NNC(=O)CC2)cc(OC)c1OC [compound 40, 3-(3,4,5-trimethoxyphenyl)-4,5-dihydro-1H-pyridazin-6-one]
- IC50 [2, 5]: 57.6 µM
- IC50 [2, 6]: 27.2 µM

SMILES: Cc1cc(C)n(-c2ccc(N3CCSCC3)nn2)n1 [compound 37, 4-[6-(3,5-dimethylpyrazol-1-yl)pyridazin-3-yl]thiomorpholine]
- IC50 [2, 7]: 3 to 10 µM
- IC50 ([2]; matched dsRNA substrate, adenosine position 2, read-out: IC50 estimated by in vitro editing assay, RNA:RNA, Position 2): 68.5 µM
- IC50 ([2]; matched dsRNA substrate, adenosine positions 3 & 6, read-out: IC50 estimated by in vitro editing assay, RNA:RNA, Position 3 & 6): 3 µM
- IC50 [2, 6]: 46 µM

SMILES: CSc1[nH]nc(-c2ccc(Cl)cc2)c1C#N [compound 27, 5-(4-chlorophenyl)-3-methylsulfanyl-1H-pyrazole-4-carbonitrile]
- viability of U2OS (ALT) cells [4]: very little effects
- viability of HeLa (non-ALT) cells [1]: significantly decreased viability; also recorded: significantly reduced viability
- IC50 [2, 7]: 5 to 17 µM
- viability of MRI90 (normal fibroblast) cells [3]: very little effects

SMILES: N#Cc1ccccc1NC(=O)c1sc2ccccc2c1Cl [Compound #13-Analog 2]
- inhibitory potency of ADAR1 p110 editing activity (SAR analogs) [2]: weaker but retained A-to-I editing inhibitory activity

SMILES: CSc1nc(SC)c(C#N)c(-c2ccco2)n1 [compound 52, 4-(furan-2-yl)-2,6-bis(methylsulfanyl)pyrimidine-5-carbonitrile]
- IC50 [2, 7]: 1.5 to 3 µM
- inhibition of editing of A:U matched dsRNA ([2]; matched dsRNA substrate, FIG. 25C, 10 microM test compound): not A:U matched dsRNA
- inhibition of editing of A-C mismatched dsRNA ([2]; mismatched dsRNA substrate, FIG. 25C, 10 microM test compound): inhibited A-C mismatched dsRNA
- inhibition of editing of A-C mismatched dsRNA ([2]; mismatched dsRNA substrate, FIG. 25C, 10 microM test compound, listed as #52): more specific inhibitory effects on adenosine at A-C mismatched base pairs

SMILES: Cc1cc(C)n2nc(-c3ccccc3)cc2n1 [compound 6, 5,7-dimethyl-2-phenylpyrazolo[1,5-a]pyrimidine]
- viability of U2OS (ALT) cells [4]: very little effects
- viability of HeLa (non-ALT) cells [1]: significantly decreased viability; also recorded: significantly reduced viability
- IC50 [2, 7]: 30 to 76 µM
- viability of MRI90 (normal fibroblast) cells [3]: very little effects

SMILES: N#Cc1c(-c2ccccc2)cc(SCc2ccc(Cl)cc2)n2c1nc1ccccc12 [compound 23, 1-[(4-chlorophenyl)methylsulfanyl]-3-phenylpyrido[1,2-a]benzimidazole-4-carbonitrile]
- IC50 [2, 5]: 66.9 µM
- IC50 ([2]; mismatched dsRNA substrate, adenosine position 6, read-out: IC50 estimated by in vitro editing assay, RNA:mmRNA, Position 6): 66.4 µM

SMILES: O=C(Nc1ccccc1)c1sc2ccccc2c1Cl [Compound #13-Analog 1]
- inhibitory potency of ADAR1 p110 editing activity (SAR analogs) [2]: complete loss of inhibitory potency; also recorded: inactive compound
